# Experimental data from patent US10729643B2, “Methods for administration and methods for treating cardiovascular diseases with resiniferatoxin” (priority 2013, dated 2020).
# Entries after “also recorded” stand apart in the source; their conditions may differ.
# Tests used:
# sham and CHF rats [1] = test: In vivo left ventricular PV loop analysis
# IL-1 β = test: Cardiac inflammatory cytokine IL-1β levels after MI; format: in vivo, rat; details: epicardial RTX during MI; 1 day or 1 week after MI
# Text: (§1) This example illustrates local anti-inflammatory effects of RTX in the infarcted heart. Myocardial ischemia causes the production and release of several metabolites including bradykinin, prostaglandins and protons that stimulate cardiac sympathetic afferent nerve endings leading to increases in BP, HR and sympathetic nerve activity. As cardiac TRPV1-expressing sympathetic afferents also subserve a “dual sensory-efferent” function and release pro-inflammatory neuropeptides, we hypothesized that plasma extravasation and cardiac neuroinflammation follows myocardial ischemia. […] Inflammation in the infarct area may be due to tissue death whereas in peri-infarct and remote areas may be due to cardiac sympathetic afferent mediated neuroinflammation. This may explain why RTX prevented cardiac inflammation in non-infarct areas to a greater extent than in the infarct area.
# rats = details: subcutaneous and epidural administration; cited from earlier work
# [2] = test system: nerve endings in the skin; details: topical administration at the nerve endings in the skin; cited from earlier work
# [3] = target: T1, TRPV1-expressing cardiac afferents (Rattus norvegicus, UniProt O35433); test: TRPV1 immunofluorescence in cardiac nerve endings after epicardial RTX; format: in vivo
# T1 construct: from tissue; host or cells: cardiac (epicardial) nerve endings of male Sprague-Dawley rats, in vivo
# Experimental: (§2) In order to desensitize cardiac sympathetic afferents in rats, resiniferatoxin (RTX, 1 mg; Sigma Aldrich) was dissolved in 2 ml of ethanol and mixed with 18 ml of Tween in isotonic saline. RTX (50 μg/ml) was applied twice on the entire left and right ventricles with a swab just prior to coronary ligation. The dose of RTX was determined by preliminary experiments in which we found nearly complete ablation of TRPV1-expressing cardiac nerve endings on the surface of the rat heart for more than 10 weeks. Rat surgery was performed 9-11 weeks post-MI. Rats were anesthetized with urethane (800 mg/kg ip) and α-chloralose (40 mg/kg ip). Renal sympathetic nerve activity (RSNA) and cardiac sympathetic nerve activity (CSNA) were recorded for evaluating basal renal and cardiac sympathetic tone.
# More specifically, we examined TRPV1 protein expression in cardiac nerve endings from vehicle and RTX-treated rats using immunofluorescence. Experiments were performed on male Sprague-Dawley rats weighing −400 to −500 g. […] Cardiac function in all experimental animals was measured 2 and 6 weeks after MI by echocardiography (VEVO 770, Visual Sonics, Inc.) as described in (Wang et al., J. Appl. Physiol. 2010; 108:1365-1375; Wang et al. 2, Am. J. Physiol. Regul. Integr. Comp. Physiol. 2012; 320:R1260-R1270; and Wang et al. 3, J. Physiol. 2010; 588:5033-5047). […]
# [4] = test system: cardiac sympathetic afferent reflex (CSAR); test: CSAR activation: cardiovascular and sympathetic responses to epicardial capsaicin or bradykinin; format: in vivo, rat; details: for cardiovascular responses to acute epicardial application of capsaicin and bradykinin: sham rats
# Experimental: as §2
# In another parallel set of experiments, we further confirmed the efficiency of RTX-induced TRPV1-expressing CSAR afferent ablation functionally by epicardial application of capsaicin and bradykinin (10 μg/ml) in sham+RTX rats treated with various doses (0.5 μg/ml, 5 μg/ml and 50 μg/ml) and at various time points (1 week, 4-6 weeks, 9-11 weeks and 6 months after RTX). […] Therefore, a higher dose greater than 5 μg/ml should be used for epicardial administration.
# To determine activation of the CSAR, epicardial application of capsaicin and bradykinin was used to effectively stimulate the cardiac sympathetic afferents (Zahner et al. J. Physiol. 2003; 551:515-523). The time interval between capsaicin and bradykinin was about 15-20 min to allow the arterial pressure (AP), heart rate (HR) and renal sympathetic nerve activity (RSNA) to return to, and stabilize at their control levels.
# [5] = test system: infarcted heart / CSAR activation; test: Cardiac plasma extravasation (Evans Blue area); format: in vivo, rat
# Text: as §1
# [6] = test system: non-infarcted LV and IVS walls of sham and CHF rats; test: Cardiac fibrosis: picrosirius red staining and western blot of fibrotic markers; format: in vivo, rat
# Text: This example illustrates the effects of RTX on cardiac fibrosis in sham and CHF rats. Considering that RTX-mediated reduction in LVEDP in CHF rats may be related to an improvement in cardiac compliance, we further evaluated cardiac fibrosis using picrosirus red staining and protein expression of two fibrotic markers (a smooth muscle actin and fibronectin) as well as their upstream activator, transforming growth factor (TGF) β receptor I in the non-infarcted LV and inter-ventricular septum (IVS) walls from sham and CHF rats treated with either vehicle or RTX. For histopathology, the rat heart was fixed in 10% phosphate buffered formalin, embedded in paraffin, and cut into 10 μm serial sections from apex to base. Picrosirius red staining was performed to detect myocardial fibrosis. Immunohistochemistry staining of cleaved caspase 3 (CC3) was also performed in paraffin sections from the same heart tissues which were used for picrosirius red staining experiments.
# sham and CHF rats [7] = test: Basal sympathetic tone (RSNA, CSNA, urinary NE) and arterial baroreflex function
# [8] = sham and CHF rats, 9-11 weeks after epicardial RTX 50 μg/ml
# T1 sequence (O35433 whole entry): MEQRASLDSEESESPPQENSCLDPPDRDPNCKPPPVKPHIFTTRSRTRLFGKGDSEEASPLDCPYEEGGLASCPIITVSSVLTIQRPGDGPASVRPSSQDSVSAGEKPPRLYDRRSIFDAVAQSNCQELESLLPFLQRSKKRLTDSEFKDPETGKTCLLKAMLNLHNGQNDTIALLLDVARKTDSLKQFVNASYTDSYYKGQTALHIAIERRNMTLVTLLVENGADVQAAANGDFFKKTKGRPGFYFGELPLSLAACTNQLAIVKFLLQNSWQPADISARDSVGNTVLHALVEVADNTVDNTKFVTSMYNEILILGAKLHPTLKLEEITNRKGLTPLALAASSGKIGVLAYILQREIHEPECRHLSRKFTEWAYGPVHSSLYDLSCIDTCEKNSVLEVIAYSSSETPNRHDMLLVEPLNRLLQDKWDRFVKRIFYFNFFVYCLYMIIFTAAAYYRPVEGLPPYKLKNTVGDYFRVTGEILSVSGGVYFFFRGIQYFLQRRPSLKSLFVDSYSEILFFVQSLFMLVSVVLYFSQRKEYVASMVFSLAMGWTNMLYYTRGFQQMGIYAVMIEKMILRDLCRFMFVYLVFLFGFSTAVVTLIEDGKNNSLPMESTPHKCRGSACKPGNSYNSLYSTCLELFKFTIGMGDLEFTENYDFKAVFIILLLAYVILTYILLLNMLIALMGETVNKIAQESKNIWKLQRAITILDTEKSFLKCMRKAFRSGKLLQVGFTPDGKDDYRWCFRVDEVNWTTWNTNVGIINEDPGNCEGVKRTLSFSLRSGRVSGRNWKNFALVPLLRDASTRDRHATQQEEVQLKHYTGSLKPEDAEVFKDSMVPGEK
smiles,measurement,setting,value
"C=C(C)[C@]12C[C@@H](C)[C@@]34O[C@](Cc5ccccc5)(O[C@@H]1[C@@H]3C=C(COC(=O)Cc1ccc(O)c(OC)c1)C[C@]1(O)C(=O)C(C)=C[C@@H]41)O2 [RTX, resiniferatoxin]","basal contractile function (dP/dtmax, PRSW and ESPVR)",sham and CHF rats [1]; CHF rats,did not have a significant effect
same,LV chamber size,sham and CHF rats [1]; CHF+RTX vs CHF+vehicle,reduction
same,Tau and LVEDP,sham and CHF rats [1]; CHF+RTX vs CHF+vehicle,reduced
same,dP/dtmin,sham and CHF rats [1]; CHF+RTX vs CHF+vehicle,increased
same,ventricular stiffness as shown by the EDPVR,sham and CHF rats [1]; CHF+RTX vs CHF+vehicle,reduced stiffness
same,contractile and relaxation parameters,sham and CHF rats [1]; sham rats,no effect
same,increased IL-1 β expression in peri-infarct and remote areas post MI,IL-1 β,markedly attenuated
same,increased IL-1 β level in the infarct area,IL-1 β,partially prevented
same,duration of thermal analgesia with no restoration of pain sensitivity,rats,over 7 days
same,sensitivity to chemical pain stimulation,[2],long-lasting insensitivity
same,TRPV1 immunoreactivity in the epicardium,"[3]; 1 week, 4-6 weeks and 9-11 weeks after epicardial RTX 50 μg/ml",absent
same,duration of nearly complete ablation of TRPV1-expressing cardiac nerve endings on the surface of the rat heart,"[3]; epicardial RTX 50 μg/ml, preliminary experiments",more than 10 weeks
same,sham rats showing partial recovery of the cardiovascular responses to capsaicin and bradykinin,"[4]; 10 weeks after epicardial RTX 5 μg/ml, preliminary experiment",40%
same,duration for which CSAR was abolished,[4]; RTX 50 μg/ml applied to the surface of heart,9-11 weeks
same,sensitivity to capsaicin and bradykinin,"[4]; all rats, 10 weeks after epicardial RTX 50 μg/ml",still insensitive
same,cardiovascular responses to capsaicin and bradykinin / CSAR sensitivity at 6 months after RTX,"[4]; epicardial RTX 50 μg/ml, 6 months",recovery of CSAR sensitivity; also recorded: largely recovered
same,duration for which cardiovascular responses to capsaicin and bradykinin were abolished,"[4]; epicardial RTX 50 μg/ml, time course experiments",more than 10 weeks
same,bradykinin-induced CSAR activation,[4]; [8],greatly attenuated
same,"cardiovascular and sympathetic activation (MAP, HR, RSNA) in response to epicardial capsaicin",[4]; [8],almost completely abolished
same,cardiovascular responses to acute epicardial application of capsaicin and bradykinin,[4]; 1 week after epicardial RTX 5 μg/ml,largely abolished
same,cardiovascular responses to acute epicardial application of capsaicin and bradykinin,[4]; 1 week after epicardial RTX 50 μ/ml,largely abolished
same,plasma extravasation following CSAR activation by epicardial capsaicin or bradykinin,[5]; chronic CSAR denervation by RTX,largely be abolished
same,cardiac plasma extravasation after MI (Evans Blue area),"[5]; epicardial RTX at the time of coronary ligation, day 1 to more than 1 week after MI",almost completely abolished
same,"picrosirus red staining, alpha smooth muscle actin, fibronectin and TGF β receptor I expression",[6]; CHF rats,reduced
same,"picrosirus red staining, fibrotic markers and TGF β receptor I",[6]; sham rats,did not cause any significant change
same,average slope and Gainmax of arterial baroreflex control of HR and RSNA,sham and CHF rats [7]; CHF rats,significantly increased
same,basal RSNA and CSNA,sham and CHF rats [7]; CHF rats,lowered
same,minimum HR and RSNA of arterial baroreflex control,sham and CHF rats [7]; CHF rats,decreased
same,urinary NE excretion,sham and CHF rats [7]; CHF+RTX vs vehicle treated rats,significantly reduced
same,"average slope, Gainmax, and minimum RSNA or HR of arterial baroreflex control",sham and CHF rats [7]; sham rats,no significant effects
